Test system: E. coli, E. faecalis, K. pneumoniae, P. aeruginosa, C. albicans, S. aureus, and S. epidermidis
Experiment: zone of inhibition (ZOI), control articles in each plate
Format: cell-based
Settings: 10 μg disk, values not shown
Description: Samples were submitted in duplicate for each sterilization process. […] The diameter of each zone is reported in millimeters. […] The control results are not shown.

gentamicin
inhibition by positive control: expected inhibition

Reference: patent publication US20110171321A1, “ELASTOMERIC ARTICLE HAVING A BROAD SPECTRUM ANTIMICROBIAL AGENT AND METHOD OF MAKING” (priority 2008, published 2011)
